In US10774071B2, “PD-1/PD-L1 inhibitors” (Gilead Sciences, Inc., priority 2018, dated 2020):
Where two headings read alike, the source gives them in different places.

What was measured:
PD-L1 = PD-L1 (Homo sapiens (Human), UniProt Q9NZQ7); experiment: PD-L1/PD-L1 dimerization biochemical protein-protein interaction assay (ALPHA); format: binding; settings: read-out: AC50 PDL1 Dimer 1 nM
PD-1/PD-L1 = PD-1/PD-L1 (Homo sapiens (Human), UniProt Q9NZQ7); experiment: PD-1/PD-L1 biochemical protein-protein interaction assay (ALPHA); format: binding; settings: read-out: IC50 PD-L1-PD1
Protocol: Compounds were tested in biochemical protein-protein interaction assays to determine if they can specifically block the interaction between the extracellular domains of PD-1/PD-L1 or CTLA/CD80. Binding of the protein pairs is measured using a bead based Amplified Luminescent Proximity Homogeneous Assay (ALPHA) platform. […] Final protein concentration in the assays were 0.3 nM (His tagged PD-L1), 2.5 nM (biotinylated Fc-PD-1), 1 nM (His tagged CTLA4) and 1 nM (biotinylated CD80).

[1] = 0.5 nM His tagged PD-L1 and 0.5 nM FLAG tagged PD-L1, Table 4B
[2] = 0.3 nM His tagged PD-L1, 2.5 nM biotinylated Fc-PD-1, Table 3B
[3] = 0.5 nM His tagged PD-L1 and 0.5 nM FLAG tagged PD-L1, Table 4A
[4] = 0.3 nM His tagged PD-L1, 2.5 nM biotinylated Fc-PD-1, readings of 0.064 nM are equal to or less than 0.064 nM

Sequence of PD-L1 (Q9NZQ7 19-238): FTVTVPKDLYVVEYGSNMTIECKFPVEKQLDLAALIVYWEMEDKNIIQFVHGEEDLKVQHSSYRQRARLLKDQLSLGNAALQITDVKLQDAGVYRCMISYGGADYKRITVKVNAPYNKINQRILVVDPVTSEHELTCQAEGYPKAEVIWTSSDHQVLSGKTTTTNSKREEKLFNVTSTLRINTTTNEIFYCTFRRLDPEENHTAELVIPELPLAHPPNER
Sequence of PD-L1 (Q9NZQ7 19-238): as above
Sequence of PD-1/PD-L1 (Q9NZQ7 19-238): as above

| AC50 (PD-L1; [1]) | SMILES | also measured |
| --- | --- | --- |
| 10.6 nM | COc1cc(O[C@H]2CCc3c(-c4cccc(-c5ccc(CNC[C@@H]6CCC(=O)N6)c(OC)n5)c4Cl)cccc32)c(C(F)(F)F)cc1CN1CC2CCC1C(C(=O)O)C2 (stereo partly drawn) [B-224] | IC50 (PD-1/PD-L1; [2]): 0.064 nM |
| 5.46 nM | COc1nc(O[C@H]2CCc3c(-c4cccc(-c5ccc(CNC[C@@H]6CCC(=O)N6)c(OCC#N)n5)c4Cl)cccc32)c(C(F)(F)F)cc1CN1CC[C@@H](C(=O)O)C1 [B-127] | IC50 (PD-1/PD-L1; [2]): 0.064 nM |
| 28.9 nM | COc1nc(-c2cccc(-c3cc(F)cc4c3CC[C@@H]4Oc3nc(OC)c(CN4CC[C@@H](C(=O)O)C4)cc3C(F)(F)F)c2Cl)ccc1CNC[C@@H]1CCC(=O)N1 [B-217] | IC50 (PD-1/PD-L1; [2]): 0.064 nM |
| 18 nM | COc1nc(-c2cccc(-c3cccc4c3CC[C@@H]4Oc3nc(OC)c(CN4CC(C)(O)C4)cc3C(F)(F)F)c2Cl)ccc1CNC[C@@H]1CCC(=O)N1 [B-260] | IC50 (PD-1/PD-L1; [2]): 0.064 nM |
| 43.7 nM | COc1cc(O[C@H]2CCc3c(-c4cccc(-c5ccc(CNC[C@@H]6CCC(=O)N6)c(OC)n5)c4Cl)cccc32)c(Cl)cc1CN1CC2(C(=O)O)CCC1CC2 [B-166] | IC50 (PD-1/PD-L1; [2]): 0.064 nM |
| 19.2 nM | COc1nc(-c2cccc(-c3cccc4c3CC[C@@H]4Oc3nc(OC)c(CN4CC(C(=O)O)C4C)cc3Cl)c2Cl)ccc1CNC[C@@H]1CCC(=O)N1 (stereo partly drawn) [B-9] | IC50 (PD-1/PD-L1; [2]): 0.064 nM |
|  | COc1nc(-c2cccc(-c3cccc4c3CC[C@@H]4Nc3nc(OC)c(CN4CC[C@@H](C(=O)O)C4)cc3C(F)(F)F)c2Cl)ccc1CN1CC2(CCC(=O)N2)C1 [A-24] | AC50 (PD-L1; [3]): 38.8 nM; IC50 (PD-1/PD-L1; [4]): ≤ 0.064 nM |
| 4.87 nM | COc1cc(-c2cccc(-c3cccc4c3CC[C@@H]4Oc3nc(OC)c(CN4CC(C(=O)O)C4)cc3Cl)c2Cl)cc(F)c1CNC[C@@H]1CCC(=O)N1 [B-130] | IC50 (PD-1/PD-L1; [2]): 0.064 nM |
| 17.9 nM | COc1nc(-c2cccc(-c3cccc4c3CC[C@@H]4Oc3nc(OC)c(CN4CC(C(=O)O)C4)nc3Cl)c2Cl)cnc1CNC[C@@H]1CCC(=O)N1 [B-44] | IC50 (PD-1/PD-L1; [2]): 0.064 nM |
| 90.7 nM | CNC(=O)C1CCN(Cc2ccc(-c3cccc(-c4cccc5c4CC[C@@H]5Oc4nc(OC)c(CN5CCC(C(=O)NC)C5)cc4Cl)c3Cl)nc2OC)C1 (stereo partly drawn) [B-87] | IC50 (PD-1/PD-L1; [2]): 0.064 nM |
| 5.32 nM | COc1nc(O[C@H]2CCc3c(-c4cccc(-c5cnc(CNC[C@@H]6CCC(=O)N6)c(OC)n5)c4Cl)cccc32)c(C(F)(F)F)cc1CNC1(C(=O)O)CC1 [B-225] | IC50 (PD-1/PD-L1; [2]): 0.064 nM |
|  | COc1nc(-c2cccc(-c3cccc4c3CC[C@@H]4Nc3nc(OC)c(CN4C[C@@H]5CC[C@H]4[C@@H]5C(=O)O)nc3C(F)(F)F)c2Cl)ccc1CNC[C@@H]1CCC(=O)N1 [A-80] | AC50 (PD-L1; [3]): 19.9 nM; IC50 (PD-1/PD-L1; [4]): ≤ 0.064 nM |
|  | COc1nc(-c2cccc(-c3cccc4c3CC[C@@H]4Nc3nc(OC)c(CN4CC(C)(C(=O)O)C4)cc3C(F)(F)F)c2Cl)ccc1CNC[C@@H]1CCC(=O)N1 [A-53] | AC50 (PD-L1; [3]): 16.2 nM; IC50 (PD-1/PD-L1; [4]): ≤ 0.064 nM |
| 15.2 nM | COc1nc(-c2cccc(-c3cccc4c3CC[C@@H]4Oc3nc(OC)c(CNC4(C(=O)O)CC4)cc3C(F)(F)F)c2Cl)ccc1CN1CC2(CCC(=O)N2)C1 [B-170] | IC50 (PD-1/PD-L1; [2]): 0.064 nM |
|  | COc1nc(-c2cccc(-c3cccc4c3CC[C@@H]4Nc3nc(OC)c(CN4C5CCC4(C(=O)O)CC5)nc3C(F)(F)F)c2Cl)ccc1CNC[C@@H]1CCC(=O)N1 [A-69] | AC50 (PD-L1; [3]): 5.27 nM; IC50 (PD-1/PD-L1; [4]): ≤ 0.064 nM |
| 3.18 nM | COc1nc(-c2cccc(-c3cccc4c3CC[C@@H]4Oc3nc(OC)c(CN4C[C@H]5C[C@H]5[C@H]4C(=O)O)cc3C(F)(F)F)c2Cl)ccc1CNC[C@@H]1CCC(=O)N1 [B-234] | IC50 (PD-1/PD-L1; [2]): 0.064 nM |
| 52.6 nM | COc1nc(-c2cccc(-c3cccc4c3CC[C@@H]4Oc3nc(OC)c(CN4CCCCC(C(=O)O)C4)cc3Cl)c2Cl)ccc1CNC[C@@H]1CCC(=O)N1 (stereo partly drawn) [B-176] | IC50 (PD-1/PD-L1; [2]): 0.064 nM |
| 4.08 nM | COc1nc(-c2cccc(-c3cccc4c3CC[C@@H]4Oc3nc(OCc4cncc(Cl)c4)c(CNC4(C(=O)O)CC4)cc3C(F)(F)F)c2Cl)ccc1CNC[C@@H]1CCC(=O)N1 [B-29] |  |
| 31.1 nM | COc1nc(-c2cccc(-c3cccc4c3CC[C@@H]4Oc3nc(OC)c(CN[C@@H]4CCC[C@@H]4C(=O)O)cc3Cl)c2Cl)ccc1CNC[C@@H]1CCC(=O)N1 [B-53] |  |
| 783 nM | CCOC(=O)C1CN(Cc2cc(Cl)c(O[C@H]3CCc4c(-c5cccc(-c6ccc(CNC[C@@H]7CCC(=O)N7)c(OC)n6)c5Cl)cccc43)nc2OC)C1 [B-105] |  |
| 93.8 nM | COc1nc(-c2cccc(-c3cccc4c3CC[C@@H]4Oc3nc(OC)c(CN4CC(C(=O)NS(C)(=O)=O)C4)cc3Cl)c2Cl)ccc1CN1CC(C)(O)C1 [B-75] |  |
| 97.1 nM | COc1nc(-c2cccc(-c3cccc4c3CC[C@@H]4Oc3nc(OC)c(CN4CC(C(=O)NS(=O)(=O)C(F)F)C4)cc3Cl)c2Cl)ccc1CNC[C@@H]1CCC(=O)N1 [B-110] |  |
| 15.3 nM | COc1nc(-c2cccc(-c3cccc4c3CC[C@@H]4Oc3nc(OCc4cncc(C#N)c4)c(CN4CC[C@H](C(=O)O)C4)cc3Cl)c2Cl)ccc1CNC[C@@H]1CCC(=O)N1 [B-65] |  |

| AC50 (PD-L1; [1]) | SMILES | also measured |
| --- | --- | --- |
| 48.6 nM | COc1nc(-c2cccc(-c3cccc4c3CC[C@@H]4Oc3nc(OC(F)F)c(CN4CC5(C(=O)O)CCC4CC5)cc3Cl)c2Cl)ccc1CNC[C@@H]1CCC(=O)N1 [B-40] |  |
| 38.1 nM | COc1nc(-c2cccc(-c3cccc4c3CC[C@@H]4Oc3nc(OCc4cncc(C#N)c4)c(CN4CC[C@@H](C(=O)O)C4)cc3Cl)c2Cl)ccc1CNC[C@@H]1CCC(=O)N1 [B-66] |  |
| 37.3 nM | COc1nc(-c2cccc(-c3cccc4c3CC[C@@H]4Oc3nc(OC)c(CN4CC[C@H](C(=O)NS(C)(=O)=O)C4)cc3Cl)c2Cl)ccc1CNC[C@@H]1CCC(=O)N1 [B-84] |  |
| 70.8 nM | COc1nc(O[C@H]2CCc3c(-c4cccc(-c5cnc([C@@H](C)NC[C@H]6CCC(=O)N6)c(OC)n5)c4Cl)cccc32)c(Cl)cc1CN1CC[C@@H](C(=O)O)C1 [B-79] |  |
| 24.5 nM | COc1nc(-c2cccc(-c3cccc4c3CC[C@@H]4Oc3nc(OC)c(CN4CCC[C@@H]4C(=O)O)cc3Cl)c2Cl)ccc1CNC[C@@H]1CCC(=O)N1 [B-16] |  |
|  | COc1nc(-c2cccc(-c3cccc4c3CC[C@@H]4Nc3nc(OC)c(CNC4(C(=O)O)CC4)cc3C(F)(F)F)c2Cl)ccc1CN1CC2(CCC(=O)N2)C1 [A-23] | IC50 (PD-1/PD-L1; [4]): ≤ 0.064 nM |
| 696 nM | COC(=O)[C@@H]1CCN(Cc2cc(Cl)c(O[C@H]3CCc4c(-c5cccc(-c6ccc(CNC[C@@H]7CCC(=O)N7)c(OC)n6)c5Cl)cccc43)nc2OC)C1 [B-108] |  |
| 29.9 nM | COc1nc(-c2cccc(-c3cccc4c3CC[C@@H]4Oc3nc(OC)c(CN4CC[C@@H](C(=O)NS(C)(=O)=O)C4)cc3Cl)c2Cl)ccc1CNC[C@@H]1CCC(=O)N1 [B-113] |  |
| 30.3 nM | COc1nc(-c2cccc(-c3cccc4c3CC[C@@H]4Oc3nc(OCc4cncc(C#N)c4)c(CN4CC5(C(=O)O)CCC4CC5)cc3Cl)c2Cl)ccc1CNC[C@@H]1CCC(=O)N1 [B-67] |  |
| 27.4 nM | CCOc1nc(O[C@H]2CCc3c(-c4cccc(-c5ccc(CNC[C@@H]6CCC(=O)N6)c(OC)n5)c4Cl)cccc32)c(Cl)cc1CN1CC[C@H](C(=O)O)C1 [B-47] |  |
| 14.7 nM | CCOc1nc(O[C@H]2CCc3c(-c4cccc(-c5ccc(CNC[C@@H]6CCC(=O)N6)c(OC)n5)c4Cl)cccc32)c(Cl)cc1CN1CC2(C(=O)O)CCC1CC2 [B-46] |  |
| 139 nM | COc1nc(-c2cccc(-c3cccc4c3CC[C@@H]4Oc3nc(OC)c(CN4CC[C@@H](C(=O)NS(=O)(=O)C(F)F)C4)cc3Cl)c2Cl)ccc1CNC[C@@H]1CCC(=O)N1 [B-111] |  |
| 10.2 nM | COc1nc(-c2cccc(-c3cccc4c3CC[C@@H]4Oc3nc(OC)c(CNC4(C(=O)O)CC4)cc3Cl)c2Cl)ccc1CNC[C@@H]1CCC(=O)N1 [B-54] |  |
| 4.29 nM | COc1nc(-c2cccc(-c3cccc4c3CC[C@@H]4Oc3nc(OC)c(CN4CCC[C@@]4(C)C(=O)O)cc3Cl)c2Cl)ccc1CNC[C@@H]1CCC(=O)N1 [B-17] |  |
| 83.2 nM | COc1nc(-c2cccc(-c3cccc4c3CC[C@@H]4Oc3nc(OC)c(CN4CC[C@@H](C(=O)NS(C)(=O)=O)C4)cc3Cl)c2Cl)ccc1CN1CC(C)(O)C1 [B-76] |  |
| 9.55 nM | COc1nc(-c2cccc(-c3cccc4c3CC[C@@H]4Oc3nc(OC)c(CNC4(C(=O)O)CCOCC4)cc3Cl)c2Cl)ccc1CNC[C@@H]1CCC(=O)N1 [B-15] |  |
| 40.9 nM | COc1nc(-c2cccc(-c3cccc4c3CC[C@@H]4Oc3nc(OC)c(CN4CCC[C@@H](C(=O)NS(C)(=O)=O)C4)cc3Cl)c2Cl)ccc1CNC[C@@H]1CCC(=O)N1 [B-109] |  |
| 14.7 nM | COc1nc(-c2cccc(-c3cccc4c3CC[C@@H]4Oc3nc(OCc4cncc(F)c4)c(CN4CC5(C(=O)O)CCC4CC5)cc3Cl)c2Cl)ccc1CNC[C@@H]1CCC(=O)N1 [B-33] |  |
| 9.06 nM | COc1nc(-c2cccc(-c3cccc4c3CC[C@@H]4Oc3nc(OC)c(CNC4(C(=O)O)CCC4)cc3Cl)c2Cl)ccc1CNC[C@@H]1CCC(=O)N1 [B-35] |  |
| 103 nM | COc1nc(-c2cccc(-c3cccc4c3CC[C@@H]4Oc3nc(OC)c(CN4CC(C(=O)O)C4)cc3Cl)c2Cl)ccc1CN1CC(C)(O)C1 [B-100] |  |
| 170 nM | CCS(=O)(=O)NC(=O)[C@@H]1CCN(Cc2cc(Cl)c(O[C@H]3CCc4c(-c5cccc(-c6ccc(CNC[C@@H]7CCC(=O)N7)c(OC)n6)c5Cl)cccc43)nc2OC)C1 [B-112] |  |
| 17.5 nM | COc1nc(-c2cccc(-c3cccc4c3CC[C@@H]4Oc3nc(OC)c(CN4CCC[C@H]4C(=O)O)cc3Cl)c2Cl)ccc1CNC[C@@H]1CCC(=O)N1 [B-18] |  |

| SMILES | AC50 (PD-L1; [1]) | also measured |
| --- | --- | --- |
| COc1nc(-c2cccc(-c3cccc4c3CC[C@@H]4Oc3nc(OCC#N)c(CN4CC5(C(=O)O)CCC4CC5)cc3Cl)c2Cl)ccc1CNC[C@@H]1CCC(=O)N1 [B-55] | 10.7 nM |  |
